Results on twelve molecules are retold here after ChEMBL document CHEMBL1201862, “PubChem BioAssay data set” (2004).

Test systems include MDA-N; OVCAR-5; MCF7; K562; SNB-19; NCI-H460; UACC-257; SNB-75; UACC-62; OVCAR-8; HOP-92; M14; LOX IMVI; T47D; SW-620; Malme-3M; BT-549; SR; SK-MEL-5.
Assay in all cases: NCI tumour cell line growth inhibition, 48 h

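Each compound was tested at five concentrations against cells in 96-well plates for 48 hours. The concentration for 50% growth inhibition is given as GI50.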 Active and inactive are the calls of the source. Cut-off read from the data, not from the text of the source: active = GI50 up to about 1.1 µM and inactive = higher. Positions of bridges follow the written chain, without caps; N, C: chain ends. Non-standard residues stand in square brackets, D forms with d. Residues, ends and D or L forms follow the SMILES beside them. *: point of attachment. PhAc = O=C(Cc1ccccc1)*

Take `Sc1nnc(COc2ccc(Cl)cc2)n1-c1ccccc1`: the GI50 was > 100 µM (inactive) in the experiment on MDA-N; > 100 µM (inactive) in the experiment on OVCAR-5; > 100 µM (inactive) with MCF7; 95.7 µM (inactive) in the experiment with K562; > 100 µM (inactive) with SNB-19; > 100 µM (inactive) in the experiment on NCI-H460. For the same molecule, the GI50 in the experiment on UACC-257, in the experiment on SNB-75, with UACC-62, in the experiment with OVCAR-8, in the experiment with HOP-92 and in the experiment on M14 was > 100 µM (inactive) each time. Besides, the GI50 is 49.3 µM (inactive) with LOX IMVI, 30.4 µM (inactive) in the experiment on T47D, > 100 µM (inactive) in the experiment with SW-620 and > 100 µM (inactive) in the experiment on Malme-3M.

Consider `COc1ccccc1N=C(S)Nc1ccccn1`, for which the GI50 in the experiment on OVCAR-5 is > 100 µM (inactive); with MCF7 it was > 100 µM (inactive); in the experiment with K562, > 100 µM (inactive); with SNB-19 it was 73.8 µM (inactive); with NCI-H460, > 100 µM (inactive); in the experiment on UACC-257 it was > 100 µM (inactive). In addition, the GI50 is 36.7 µM (inactive) in the experiment on SNB-75; > 100 µM (inactive) in the experiment on BT-549; > 100 µM (inactive) with UACC-62; 99.8 µM (inactive) with OVCAR-8; > 100 µM (inactive) in the experiment with M14; > 100 µM (inactive) in the experiment with LOX IMVI. For the same molecule, the GI50 in the experiment on SR, with SW-620, in the experiment with Malme-3M and with SK-MEL-5 was > 100 µM (inactive) each time.

In the case of `O=C1Nc2ccccc2/C1=N/NC(=S)Nc1cccc(Cl)c1`, the GI50 in the experiment on MDA-N was 27.9 µM (inactive); in the experiment on OVCAR-5 it was 24.5 µM (inactive); in the experiment on MCF7, 8.43 µM (inactive); in the experiment with K562 it was 4.7 µM (inactive); with SNB-19, 16.6 µM (inactive); with NCI-H460 it was 5.52 µM (inactive). Moreover, the GI50 was 29.4 µM (inactive) with UACC-257; 8.41 µM (inactive) with UACC-62; 5.04 µM (inactive) in the experiment on OVCAR-8; 18.7 µM (inactive) in the experiment on HOP-92; 10.4 µM (inactive) with M14; 5.37 µM (inactive) in the experiment with LOX IMVI. Also, the GI50 in the experiment on SR was 1.73 µM (inactive); in the experiment with T47D, 48.9 µM (inactive); with SW-620 it was 4.09 µM (inactive); with Malme-3M, 19.9 µM (inactive); with SK-MEL-5 it was 4.57 µM (inactive).

Consider `COc1ccc(NC(=O)/C(CC2=Nc3ccc([N+](=O)[O-])cc3NC2O)=N\NC(=O)C[N+](C)(C)C)c(OC)c1` (configuration not stated), for which the GI50 in the experiment on MDA-N was > 100 µM (inactive); in the experiment with OVCAR-5, > 100 µM (inactive); in the experiment on MCF7, > 100 µM (inactive); in the experiment on SNB-19, > 100 µM (inactive); with NCI-H460, 40.5 µM (inactive); in the experiment with UACC-257, > 100 µM (inactive). For the same molecule, the GI50 in the experiment with SNB-75 was > 100 µM (inactive); with BT-549 it was > 100 µM (inactive); in the experiment on UACC-62, > 100 µM (inactive); in the experiment on OVCAR-8, 30.1 µM (inactive); with HOP-92 it was 72.3 µM (inactive); with M14, 56.1 µM (inactive). The GI50 is 62.1 µM (inactive) with LOX IMVI, 18.4 µM (inactive) in the experiment with SR, 94.8 µM (inactive) in the experiment on SW-620 and 22.2 µM (inactive) in the experiment with SK-MEL-5.

Consider `O=C1N/N=C\c2ccc(cc2)OCc2cccc(n2)COc2ccc(cc2)/C=N\NC1=O`, for which the GI50 in the experiment on MDA-N, in the experiment with OVCAR-5, in the experiment on MCF7, in the experiment with K562, with SNB-19 and with NCI-H460 was > 25 µM (inactive) each time. The GI50 is > 25 µM (inactive) in the experiment with UACC-257; 14.6 µM (inactive) in the experiment on SNB-75; > 25 µM (inactive) with BT-549; > 25 µM (inactive) in the experiment with UACC-62; > 25 µM (inactive) with OVCAR-8; > 25 µM (inactive) in the experiment on HOP-92. Also, the GI50 with M14, in the experiment on SR, in the experiment with SW-620 and with Malme-3M was > 25 µM (inactive) in each case.

As for `COc1cc2c(c(OC)c1OC)-c1ccc(SC)cc1C(O)CC2` (configuration not stated), the GI50 in the experiment on MDA-N was 0.19 µM (active); in the experiment with OVCAR-5, 14.6 µM (inactive); with MCF7, < 0.01 µM (active); in the experiment on K562 it was < 0.01 µM (active); in the experiment with SNB-19, < 0.01 µM (active); in the experiment with NCI-H460, < 0.01 µM (active). For the same molecule, the GI50 is < 0.01 µM (active) with SNB-75; < 0.01 µM (active) in the experiment with UACC-62; > 100 µM (inactive) in the experiment on HOP-92; < 0.01 µM (active) in the experiment on M14; < 0.01 µM (active) with LOX IMVI; < 0.01 µM (active) in the experiment on SR. The GI50 in the experiment on T47D was > 100 µM (inactive); with SW-620, < 0.01 µM (active); with Malme-3M, 0.0132 µM (active); with SK-MEL-5, < 0.01 µM (active).

Consider `CC(C)NC(=O)OCc1c(COC(=O)NC(C)C)c(-c2cc[n+](COC(=O)CC(C)(C)C)cc2)n2c1CCC2`, for which the GI50 in the experiment on MDA-N, in the experiment on MCF7, with K562, in the experiment on SNB-19, in the experiment on UACC-257 and in the experiment with BT-549 was > 100 µM (inactive) each time. Besides, the GI50 was > 100 µM (inactive) in the experiment on OVCAR-8; > 100 µM (inactive) in the experiment on HOP-92; > 100 µM (inactive) with M14; 42.4 µM (inactive) in the experiment on SR; > 100 µM (inactive) in the experiment with SW-620; > 100 µM (inactive) in the experiment with SK-MEL-5.

For the molecule `COc1ccc2nc(-c3ccc(OC(=O)N(C)C)cc3)cn2c1`, the GI50 in the experiment with MDA-N was > 100 µM (inactive); with OVCAR-5 it was > 100 µM (inactive); in the experiment on MCF7, > 100 µM (inactive); with K562, 39 µM (inactive); with SNB-19 it was > 100 µM (inactive); in the experiment on NCI-H460 it was 36 µM (inactive). Besides, the GI50 is > 100 µM (inactive) in the experiment with UACC-257; > 100 µM (inactive) in the experiment on SNB-75; > 100 µM (inactive) with UACC-62; > 100 µM (inactive) in the experiment with OVCAR-8; > 100 µM (inactive) in the experiment with HOP-92; 75.7 µM (inactive) with M14. Also, the GI50 with LOX IMVI was 82.8 µM (inactive); with SR, 38.9 µM (inactive); in the experiment with T47D it was 71.4 µM (inactive); with SW-620, > 100 µM (inactive); with Malme-3M, > 100 µM (inactive); in the experiment with SK-MEL-5, > 100 µM (inactive).

Consider `CC1=C/C(=N\NS(=O)(=O)c2ccc([N+](=O)[O-])cc2)CC(C)(C)C1`, for which the GI50 is > 100 µM (inactive) in the experiment with MDA-N; > 100 µM (inactive) with OVCAR-5; > 100 µM (inactive) with MCF7; 62.1 µM (inactive) in the experiment with K562; 69 µM (inactive) in the experiment with SNB-19; 51.6 µM (inactive) with NCI-H460. The GI50 in the experiment with UACC-257 is 80.5 µM (inactive); in the experiment with UACC-62, 50.2 µM (inactive); with OVCAR-8, > 100 µM (inactive); in the experiment with HOP-92, 10.4 µM (inactive); with M14, > 100 µM (inactive); in the experiment on LOX IMVI, > 100 µM (inactive). The GI50 in the experiment with SR is 79.6 µM (inactive); in the experiment on T47D, > 100 µM (inactive); in the experiment with SW-620, > 100 µM (inactive); in the experiment with Malme-3M it was > 100 µM (inactive); in the experiment on SK-MEL-5, 66.1 µM (inactive).

Regarding `COc1ccc(Cc2cc3c(cc2OCC(=O)O)OCO3)cc1`, the GI50 in the experiment with OVCAR-5, in the experiment on K562, in the experiment with SNB-19, in the experiment with NCI-H460, in the experiment on UACC-257 and with UACC-62 was > 100 µM (inactive) in each case. The GI50 in the experiment with OVCAR-8, in the experiment on HOP-92, in the experiment on M14, in the experiment with LOX IMVI, in the experiment on SR and in the experiment with SW-620 was > 100 µM (inactive) throughout. Moreover, the GI50 in the experiment with Malme-3M and in the experiment on SK-MEL-5 was > 100 µM (inactive) each time.

Consider `CC(C)(C)OC(=O)CN1C(=O)CC1CC(=O)c1ccccc1` (configuration not stated), for which the GI50 with MDA-N was 20.3 µM (inactive); with OVCAR-5 it was 17.5 µM (inactive); with MCF7 it was 12.4 µM (inactive); in the experiment on K562, 4.14 µM (inactive); with SNB-19 it was 19.8 µM (inactive); in the experiment on NCI-H460, 26.7 µM (inactive). Moreover, the GI50 in the experiment on UACC-257 was 18.2 µM (inactive); in the experiment on BT-549, 18.2 µM (inactive); in the experiment on UACC-62, 19.3 µM (inactive); in the experiment with OVCAR-8, 17.3 µM (inactive); with HOP-92, 37.4 µM (inactive); with M14 it was 16.3 µM (inactive). For the same molecule, the GI50 is 16.9 µM (inactive) in the experiment with LOX IMVI; 2.89 µM (inactive) in the experiment on SR; 3.58 µM (inactive) in the experiment with SW-620; 17.3 µM (inactive) in the experiment on Malme-3M; 18.2 µM (inactive) in the experiment with SK-MEL-5.

`O=C(Cc1ccccc1)N[C@@H]1COC(=O)[C@@H]2CCCN2C(=O)[C@@H]2CCCN2C1=O` (PhAc-[dS]-Pro-Pro; ester 1-C): the GI50 in the experiment on MDA-N, in the experiment with OVCAR-5, in the experiment with MCF7, in the experiment on SNB-19, in the experiment with NCI-H460 and in the experiment on UACC-257 was > 100 µM (inactive) each time. For the same molecule, the GI50 was 0.0254 µM (active) in the experiment with SNB-75; > 100 µM (inactive) in the experiment with UACC-62; > 100 µM (inactive) in the experiment with OVCAR-8; > 100 µM (inactive) in the experiment on HOP-92; > 100 µM (inactive) with M14; > 100 µM (inactive) in the experiment on LOX IMVI. The GI50 with SR, in the experiment with T47D, with SW-620, in the experiment with Malme-3M and in the experiment on SK-MEL-5 was > 100 µM (inactive) each time.
